Measurements from patent US7288273B1, “Gallotannins and ellagitannins as regulators of cytokine release” (The Penn State Research Foundation, priority 2000, dated 2007).

Test system: IL-1β secretion from h-PBMC's
Assay: IL-1β release from h-PBMC's, ELISA
Type: cell-based, human
Conditions: for IL-1β secreted in the presence of 17c-20c: h-PBMC's 2nd subject, ± SD
Description: Authentic samples of agrimoniin and coriariin A were supplied by Professor Yoshida (Okayama University, Japan). Dimeric gallotannin (analog of coriariin A) and β-D-PGG were synthesized as described. LPS (E. coli 055:B5 phenol extract, MW range 50-100 KD). Ficoll-Histopaque (ρ=1.077 g/mL), Fetal Bovine Serum, sterile, hybridoma tested (FCS), gentamicin 10 mg/mL. L-glutamine, 200 mM. Dextran B-512 Leuconostoc Av M.W. 580000, and Trypan Blue stain were purchased from Sigma. Hanks Buffer Saline Solution 1×, with phenol red, mediatech (HBSS) and RPMI 1640 1×, mediatech were purchased from Fisher Scientific, Human IL-1β and TNF-α Enzyme Linked ImmunoSorbent Assay (ELISA) kits were purchased from R and D Systems, Minneapolis, Minn. Fresh heparinized blood was obtained from health human subjects (ages 20-34).
Dose-Response Data: General Procedure. H-PBMC's were isolated by reported procedures (10. 18). The cells counted and the viability was determined by Trypan Blue exclusion (typically, viability exceeded 95%). The concentration of the cells in the 0.5 mL wells was adjusted to 1×10^6 cells/well by diluting with the required amount of RPMI.
The appropriate amount of a tannin (or LPS) stock solution in HBSS was added to each well to furnish the concentration values reported in the Figures. […] The culture plates were incubated in a 5% CO2, 37° C. humidified incubator for the indicated time. At the end of the time interval, 450 μL of the culture supernatant from each well was harvested, after centrifugation at 400 g, 25° C., 10 min. with brake, and stored at −78° C. pending ELISA analysis for the cytokine(s). The ELISA assays were conducted per the manufacturer's instructions using standard calibration curves to calculate cytokine concentration from observed absorbance readings. The cytokine values reported are averages of three runs±SE.
The dimeric antitumor ellagitannins coriariin A and agrimoniin, the monomeric gallotannin β-D-pentagalloylglucose (β-D-PGG) and the dimeric gallotannin of this invention were all examined in this study. The dimeric gallotannin is an analog of coriariin A and is identical to the parent ellagitannin except that the galloyl rings at O(4) and O(6) are not joined in a hexahydroxydiphenoyl (HHDP) linkage. h-PBMC's were incubated with the compound under investigation for the indicated length of time and the amounts of both IL-1β and, independently, TNF-α, present in the culture supernatants was determined using commercially available ELISA kits. In each case, LPS was used as a positive control while untreated cells were reserved as negative controls.
In the third study, compounds 17c-20c were examined for their ability to induce secretion of IL-1β from h-PBMC's (FIG. 16). Recall from the introduction that the cytokine IL-1β is also released in an LPS-stimulated septic shock response. The compounds that cause very little secretion of IL-1β or none at all will be the optimal compounds for potential septic shock therapeutics because they will be less likely themselves to induce a septic shock response.

SMILES	IL-1β secreted in the presence of 17c-20c (compound 0.6 μM)	IL-1β secreted in the presence of 17c-20c (compound 2.9 μM)	IL-1β secreted in the presence of 17c-20c (compound 5.9 μM)	IL-1β secreted in the presence of 17c-20c (compound 11.8 μM)	IL-1β secreted in the presence of 17c-20c (compound 17.6 μM)	IL-1β secreted in the presence of 17c-20c (compound 23.5 μM)	IL-1β secreted in the presence of 17c-20c (compound 29.4 μM)	IL-1β secretion from h-PBMC's, in words	IL-1β secreted in the presence of 17c-20c (compound 2.8 μM)	IL-1β secreted in the presence of 17c-20c (compound 5.6 μM)	IL-1β secreted in the presence of 17c-20c (compound 11.2 μM)	IL-1β secreted in the presence of 17c-20c (compound 16.8 μM)	IL-1β secreted in the presence of 17c-20c (compound 22.5 μM)	IL-1β secreted in the presence of 17c-20c (compound 28.1 μM)
O=C(OC[C@H]1O[C@@H](OC(=O)c2cccc(C(=O)O[C@@H]3O[C@H](COC(=O)c4cc(O)c(O)c(O)c4)[C@@H](OC(=O)c4cc(O)c(O)c(O)c4)[C@H](OC(=O)c4cc(O)c(O)c(O)c4)[C@H]3OC(=O)c3cc(O)c(O)c(O)c3)c2)[C@H](OC(=O)c2cc(O)c(O)c(O)c2)[C@@H](OC(=O)c2cc(O)c(O)c(O)c2)[C@@H]1OC(=O)c1cc(O)c(O)c(O)c1)c1cc(O)c(O)c(O)c1 [Compound 18c, 1,1′-O-2,2′,3,3′,4,4′,6,6′-Tetrakis(3,4,5-trihydroxybenzoyl)-β,β′-D-glucopyranosylisophthalate]	0 pg/mL	4.7 ± 8.1 pg/mL	3.2 ± 5.5 pg/mL	34.1 ± 48.2 pg/mL	1266.0 ± 78.3 pg/mL	631.2 ± 94.4 pg/mL	2113.4 ± 393.0 pg/mL	–	–	–	–	–	–	–
O=C(CCCCCC(=O)OC1O[C@H](COC(=O)c2cc(O)c(O)c(O)c2)[C@@H](OC(=O)c2cc(O)c(O)c(O)c2)[C@H](OC(=O)c2cc(O)c(O)c(O)c2)[C@H]1OC(=O)c1cc(O)c(O)c(O)c1)OC1O[C@H](COC(=O)c2cc(O)c(O)c(O)c2)[C@@H](OC(=O)c2cc(O)c(O)c(O)c2)[C@H](OC(=O)c2cc(O)c(O)c(O)c2)[C@H]1OC(=O)c1cc(O)c(O)c(O)c1 (mixture of isomers) [Compound 20c, 1,1′-O-2,2′,3,3′,4,4′,6,6′-Tetrakis(3,4,5-trihyroxybenzoyl)-β,β′-D,D′-glucopyranosylpimelate]	0 pg/mL	0 pg/mL	0 pg/mL	184.1 pg/mL	230.0 pg/mL	0 pg/mL	204.2 pg/mL	lowest amounts of IL-1β production	–	–	–	–	–	–
O=C(OC[C@H]1O[C@@H](OC(=O)c2ccc(-c3ccc(C(=O)O[C@@H]4O[C@H](COC(=O)c5cc(O)c(O)c(O)c5)[C@@H](OC(=O)c5cc(O)c(O)c(O)c5)[C@H](OC(=O)c5cc(O)c(O)c(O)c5)[C@H]4OC(=O)c4cc(O)c(O)c(O)c4)cc3)cc2)[C@H](OC(=O)c2cc(O)c(O)c(O)c2)[C@@H](OC(=O)c2cc(O)c(O)c(O)c2)[C@@H]1OC(=O)c1cc(O)c(O)c(O)c1)c1cc(O)c(O)c(O)c1 [Compound 19c, 1,1′-O-2.2′,3,3′,4,4′,6,6′-Tetrakis(3,4,5-trihyroxybenzoyl)-β,β′-D,D′-glucopyranosylbiphenyl-4.4′-diester]	54.2 ± 57.5 pg/mL	–	–	–	–	–	–	lowest amounts of IL-1β production	60.9 ± 58.6 pg/mL	14.5 ± 25.2 pg/mL	9.4 ± 7.0 pg/mL	41.3 ± 14.8 pg/mL	23.2 ± 18.0 pg/mL	41.3 ± 6.0 pg/mL
